Test results reported in article PMC5579575, “Study of Alzheimer’s Disease-Related Biophysical Kinetics with a Microslit-Embedded Cantilever Sensor in a Liquid Environment” (Sensors (Basel, Switzerland), 2017).

Assays:
[1] = system: monoclonal 6E10 antibody (mAb); test: Quantitative detection of Aβ42 with mAb-immobilized slit cantilever (resonant frequency shift); format: binding; details: for frequency shift (average): in 10 mM PBS, 30 min, rinsed with PBS, mAb 10 μg/mL immobilized
Method: To detect the target molecules, a commercial monoclonal 6E10 antibody (mAb, 10 μg/mL, Covance, Princeton, NJ, USA) was immobilized on the cantilever surfaces by using a conventional coupling method. The mAb is known to include a specific binding ligand with the first 1–16 sequence of human Aβ peptides. Prior to antibody immobilization, the slit cantilever with a 50 nm thick Au surface was cleaned with piranha solution (a 4:1 ratio of H2SO4 to H2O2) and rinsed with deionized water (DI). In addition, 10 mM of 11-Mercaptoundecanoic acid (11-MUC, Sigma-Aldrich, St. Louis, MO, USA) diluted in ethanol was treated for 12 h on the Au surface of the sensor to establish a self-assembled monolayer. The MUC-modified slit cantilever was immersed in a mixture of 1-ethyl-3-(3-dimethylaminopropyl) carbodiimide (EDC, 80 mM, Sigma-Aldrich) and N-hydroxysuccinimide (NHS, 20 mM, Sigma-Aldrich) dissolved for 2 h in 10 mM of phosphate-buffered solution (PBS, pH = 7.4). Then, mAb, which was diluted as 10 µg/mL in 10 mM PBS, was immobilized on the functionalized surface of the slit cantilever for 2 h, followed by rinsing with PBS and DI.
To evaluate the sensing performance of the slit cantilever in a liquid environment, quantification of the synthetic Aβ42 peptide, which has an identical sequence of 42-residue amino acids associated with human AD, was investigated in a physiological-level concentration. Prior to conducting biomolecular interactions, a drift of resonant frequency was verified and stabilized until steady state (Figure S2). The resonance responses reached its steady state within 200 min and the frequency maintained for 60 min with fluctuations up to 4 Hz which can be regarded as a noise level. Detection of target molecules with the slit cantilever is based on the capturing by immobilized mAb on the cantilever beam. It occurs in the measurement of the frequency shift due to mass loading on the surface. Firstly, the specific antibody (mAb) of 10 μg/mL was chemically immobilized on the 60 μm × 280 μm dimension of the Au surface (50 nm thickness) of the slit cantilever. The Aβ42 peptide was diluted with a ten-fold difference from 10 pg/mL to 1 μg/mL in 10 mM PBS. The prepared Aβ42 solution was individually introduced into the slit cantilever for 30 min, followed by rinsing with PBS. The changes of resonant frequencies in PBS were measured before and after the recognition interactions between mAb and target analytes. The resonant frequency decreased according to the concentration increment of target analytes owing to mass adsorption of Aβ42 to the specific binding site of the immobilized mAb. The average values of the frequency shifts were measured as −15.5, −56.5, −119.5, −472.5, −774 and −799 Hz for the concentrations from 10 pg/mL to 1 μg/mL, respectively. As noted earlier, these responses were satisfied with at least three-sigma significance in terms of the signal-to-noise ratio of the sensors.

[2] = molecular target: monoclonal 6E10 antibody (mAb); test: Binding affinity (KD) of Aβ42-mAb by Langmuir isotherm fit of slit cantilever responses; details: global fit of Langmuir isotherm (χ^2 = 0.010958), 1:1 binding; fractional saturation vs. Aβ concentration; 1 μg/mL assumed fully saturated; PBS; read-out: equilibrium dissociation constant (KD)
Method: To detect the target molecules, a commercial monoclonal 6E10 antibody (mAb, 10 μg/mL, Covance, Princeton, NJ, USA) was immobilized on the cantilever surfaces by using a conventional coupling method. The mAb is known to include a specific binding ligand with the first 1–16 sequence of human Aβ peptides. Prior to antibody immobilization, the slit cantilever with a 50 nm thick Au surface was cleaned with piranha solution (a 4:1 ratio of H2SO4 to H2O2) and rinsed with deionized water (DI). In addition, 10 mM of 11-Mercaptoundecanoic acid (11-MUC, Sigma-Aldrich, St. Louis, MO, USA) diluted in ethanol was treated for 12 h on the Au surface of the sensor to establish a self-assembled monolayer. […]
To evaluate the sensing performance of the slit cantilever in a liquid environment, quantification of the synthetic Aβ42 peptide, which has an identical sequence of 42-residue amino acids associated with human AD, was investigated in a physiological-level concentration. […] The changes of resonant frequencies in PBS were measured before and after the recognition interactions between mAb and target analytes. […] The average values of the frequency shifts were measured as −15.5, −56.5, −119.5, −472.5, −774 and −799 Hz for the concentrations from 10 pg/mL to 1 μg/mL, respectively. […]

Aβ peptides = details: conventional surface plasmon resonance (SPR), ref [27]; cited from earlier work
Method: Meanwhile, Equation (5) predicts the hyperbolic plot of fractional saturation ([AB]/[B]) vs. Aβ concentration. This curve follows isotherms for relatively obscure thermodynamic reasons. […] The acquired value is consistent with those of previous studies (1.2 nM) using conventional surface ...

## PSA: prostate cancer antigen (PSA) protein introduced as a control experiment
[1]; PSA protein as control experiment, mAb-immobilized cantilever
  resonant frequency response, negative control: no obvious responses were observed

## Aβ42: synthetic Aβ42 peptide, which has an identical sequence of 42-residue amino acids associated with human AD (Sigma-Aldrich)
[1]; 10 pg/mL Aβ42
  frequency shift (average): −15.5 Hz
[1]; 100 pg/mL Aβ42 (ten-fold dilution series 10 pg/mL to 1 μg/mL)
  frequency shift (average): −56.5 Hz
[1]; 1 ng/mL Aβ42 (ten-fold dilution series 10 pg/mL to 1 μg/mL)
  frequency shift (average): −119.5 Hz
[1]; 10 ng/mL Aβ42 (ten-fold dilution series 10 pg/mL to 1 μg/mL)
  frequency shift (average): −472.5 Hz
[1]; 100 ng/mL Aβ42 (ten-fold dilution series 10 pg/mL to 1 μg/mL)
  frequency shift (average): −774 Hz
[1]; 1 μg/mL Aβ42
  frequency shift (average): −799 Hz
[1]; dynamic range 100 pg/mL to 100 ng/mL Aβ42, logarithmic concentration
  sensitivity: 330 Hz/decade
[2]
  Kd: 1.75 nM
Aβ peptides
  Kd: 1.2 nM
